# Patent US11006631B2, “Substituted pyrimidinyloxy pyridine derivatives as herbicides” (FMC Corporation, priority 2015, dated 2021)
# Experiments:
# Type in all cases: in vivo
# [1] = test system: barnyardgrass (Echinochloa crus-galli); assay: Test A postemergence, barnyardgrass; details: 0 to 100 scale
# From the text: (§1) Seeds of plant species selected from bamyardgrass (Echinochloa crus-galli), kochia (Kochia scoparia), ragweed (common ragweed, Ambrosia elatior), ryegrass, Italian (Italian ryegrass, Lolium multiflorum), foxtail, giant (giant foxtail, Setaria faberii), pigweed (Amaranthus retroflexus), crabgrass, large (large crabgrass, Digitaria sanguinalis), momingglory (Ipomoea spp.), velvetleaf (Abutilon theophrasti), wheat (Triticum aestivum), and corn (Zea mays) were planted into a blend of loam soil and sand and treated preemergence with a directed soil spray using test chemicals formulated in a non-phytotoxic solvent mixture which included a surfactant. At the same time, plants selected from these crop and weed species and also blackgrass (Alopecurus myosuroides), and galium (catchweed bedstraw, Galium aparine) were planted in pots containing the same blend of loam soil and sand and treated with postemergence applications of test chemicals formulated in the same manner. Plants ranged in height from 2 to 10 cm and were in the one- to two-leaf stage for the postemergence treatment. Treated plants and untreated controls were maintained in a greenhouse for approximately 10 days, after which time all treated plants were compared to untreated controls and visually evaluated for injury. Plant response ratings, summarized in Table A, are based on a 0 to 100 scale where 0 is no effect and 100 is complete control. A dash (-) response means no test result.
# rice (Oryza sativa) = assay: Test B flooded paddy test, rice; details: Flood, 250 g ai/ha; scale of 0 to 100
# Protocol: (§2) Plant species in the flooded paddy test selected from rice (Oryza sativa), sedge, umbrella (small-flower umbrella sedge, Cyperus difformis), ducksalad (Heteranthera limosa), and barnyardgrass (Echinochloa crus-galli) were grown to the 2-leaf stage for testing. At time of treatment, test pots were flooded to 3 cm above the soil surface, treated by application of test compounds directly to the paddy water, and then maintained at that water depth for the duration of the test. Treated plants and controls were maintained in a greenhouse for 13 to 15 days, after which time all species were compared to controls and visually evaluated. Plant response ratings, summarized in Table B, are based on a scale of 0 to 100 where 0 is no effect and 100 is complete control. A dash (-) response means no test result.
# [2] = test system: sedge, umbrella (small-flower umbrella sedge, Cyperus difformis); assay: Test B flooded paddy test, sedge, umbrella; details: Flood, 250 g ai/ha; scale of 0 to 100
# Protocol: as §2
# [3] = test system: velvetleaf (Abutilon theophrasti); assay: Test A postemergence, velvetleaf; details: 0 to 100 scale
# From the text: as §1
# [4] = test system: velvetleaf (Abutilon theophrasti); assay: Test A preemergence, velvetleaf; details: 0 to 100 scale
# From the text: as §1
# [5] = test system: ducksalad (Heteranthera limosa); assay: Test B flooded paddy test, ducksalad; details: Flood, 250 g ai/ha; scale of 0 to 100
# Protocol: as §2
# [6] = test system: crabgrass, large (large crabgrass, Digitaria sanguinalis); assay: Test A preemergence, crabgrass, large; details: 0 to 100 scale
# From the text: as §1
# [7] = test system: morningglory (Ipomoea spp.); assay: Test A postemergence, morningglory; details: 0 to 100 scale
# From the text: as §1
# [8] = test system: wheat (Triticum aestivum); assay: Test A postemergence, wheat; details: 0 to 100 scale
# From the text: as §1
# [9] = test system: barnyardgrass (Echinochloa crus-galli); assay: Test B flooded paddy test, barnyardgrass; details: Flood, 250 g ai/ha; scale of 0 to 100
# Protocol: as §2
# corn (Zea mays) [10] = assay: Test A preemergence, corn; details: 0 to 100 scale
# From the text: as §1
# [11] = test system: morningglory (Ipomoea spp.); assay: Test A preemergence, morningglory; details: 0 to 100 scale
# From the text: as §1
# [12] = test system: foxtail, giant (giant foxtail, Setaria faberii); assay: Test A postemergence, foxtail, giant; details: 0 to 100 scale
# From the text: as §1
# [13] = test system: crabgrass, large (large crabgrass, Digitaria sanguinalis); assay: Test A postemergence, crabgrass, large; details: 0 to 100 scale
# From the text: as §1
# [14] = test system: pigweed (Amaranthus retroflexus); assay: Test A preemergence, pigweed; details: 0 to 100 scale
# From the text: as §1
# [15] = test system: wheat (Triticum aestivum); assay: Test A preemergence, wheat; details: 0 to 100 scale
# From the text: as §1
# [16] = test system: barnyardgrass (Echinochloa crus-galli); assay: Test A preemergence, barnyardgrass; details: 0 to 100 scale
# From the text: as §1
# [17] = test system: foxtail, giant (giant foxtail, Setaria faberii); assay: Test A preemergence, foxtail, giant; details: 0 to 100 scale
# From the text: as §1
# corn (Zea mays) [18] = assay: Test A postemergence, corn; details: 0 to 100 scale
# From the text: as §1
# [19] = test system: pigweed (Amaranthus retroflexus); assay: Test A postemergence, pigweed; details: 0 to 100 scale
# From the text: as §1
SMILES,"Plant response rating, Barnyardgrass ([1]; 125 g ai/ha)","Plant response rating, Barnyardgrass ([1]; 500 g ai/ha)","Plant response rating, Rice (rice (Oryza sativa))","Plant response rating, Sedge, Umbrella [2]","Plant response rating, Velvetleaf ([3]; 125 g ai/ha)","Plant response rating, Velvetleaf ([3]; 500 g ai/ha)","Plant response rating, Velvetleaf ([4]; 125 g ai/ha)","Plant response rating, Velvetleaf ([4]; 500 g ai/ha)","Plant response rating, Ducksalad [5]","Plant response rating, Crabgrass, Large ([6]; 125 g ai/ha)","Plant response rating, Crabgrass, Large ([6]; 500 g ai/ha)","Plant response rating, Morningglory ([7]; 125 g ai/ha)","Plant response rating, Morningglory ([7]; 500 g ai/ha)","Plant response rating, Wheat ([8]; 125 g ai/ha)","Plant response rating, Wheat ([8]; 500 g ai/ha)","Plant response rating, Barnyardgrass [9]","Plant response rating, Corn (corn (Zea mays) [10]; 125 g ai/ha)","Plant response rating, Corn (corn (Zea mays) [10]; 500 g ai/ha)","Plant response rating, Morningglory ([11]; 500 g ai/ha)","Plant response rating, Foxtail, Giant ([12]; 125 g ai/ha)",further results
Cc1ccc(Oc2ncc(Cl)cn2)c(-n2cc(Br)cn2)n1 [Compound 10],0,0,0,0,50,80,0,20,0,0,50,0,10,0,0,0,0,0,10,0,"Plant response rating, Morningglory ([11]; 125 g ai/ha): 0; Plant response rating, Foxtail, Giant ([12]; 500 g ai/ha): 0; Plant response rating, Crabgrass, Large ([13]; 125 g ai/ha): 0; Plant response rating, Crabgrass, Large ([13]; 500 g ai/ha): 10; Plant response rating, Pigweed ([14]; 125 g ai/ha): 0; Plant response rating, Pigweed ([14]; 500 g ai/ha): 40; Plant response rating, Wheat ([15]; 125 g ai/ha): 0; Plant response rating, Wheat ([15]; 500 g ai/ha): 0; Plant response rating, Barnyardgrass ([16]; 125 g ai/ha): 0; Plant response rating, Barnyardgrass ([16]; 500 g ai/ha): 0; Plant response rating, Foxtail, Giant ([17]; 125 g ai/ha): 0; Plant response rating, Foxtail, Giant ([17]; 500 g ai/ha): 20; Plant response rating, Corn (corn (Zea mays) [18]; 125 g ai/ha): 0; Plant response rating, Corn (corn (Zea mays) [18]; 500 g ai/ha): 0; Plant response rating, Pigweed ([19]; 125 g ai/ha): 10; Plant response rating, Pigweed ([19]; 500 g ai/ha): 50"
"Clc1cnc(Oc2cccnc2-n2cc(Br)cn2)nc1 [Compound 1, 2-[[2-(4-bromo-1H-pyrazol-1-yl)-3-pyridinyl]oxy]-5-chloropyrimidine]",0,10,0,50,20,50,10,30,60,40,100,10,80,10,20,0,0,0,0,10,"Plant response rating, Foxtail, Giant ([12]; 500 g ai/ha): 30; Plant response rating, Crabgrass, Large ([13]; 125 g ai/ha): 10; Plant response rating, Crabgrass, Large ([13]; 500 g ai/ha): 50; Plant response rating, Pigweed ([14]; 125 g ai/ha): 50; Plant response rating, Pigweed ([14]; 500 g ai/ha): 90; Plant response rating, Wheat ([15]; 125 g ai/ha): 0; Plant response rating, Wheat ([15]; 500 g ai/ha): 10; Plant response rating, Barnyardgrass ([16]; 125 g ai/ha): 10; Plant response rating, Barnyardgrass ([16]; 500 g ai/ha): 50; Plant response rating, Foxtail, Giant ([17]; 125 g ai/ha): 20; Plant response rating, Foxtail, Giant ([17]; 500 g ai/ha): 80; Plant response rating, Corn (corn (Zea mays) [18]; 125 g ai/ha): 10; Plant response rating, Corn (corn (Zea mays) [18]; 500 g ai/ha): 20; Plant response rating, Pigweed ([19]; 125 g ai/ha): 90; Plant response rating, Pigweed ([19]; 500 g ai/ha): 100"
